target: T1, human full-length MKNK1 (Homo sapiens, UniProt Q9BUB5, T385D); test: MKNK1 kinase high ATP assay (TR-FRET); type: biochemical; settings: TR-FRET, high ATP (2 mM final), 15 min preincubation with enzyme, GST-MKNK1 (T344D); read-out: MKNK1 IC50
T1 construct: GST (N); purchased Carna Biosciences 02-145; host or cells: insect cells (baculovirus expression system)
Experimental: MKNK1 Kinase High ATP Assay
MKNK1-inhibitory activity at high ATP of compounds of the present invention after their preincubation with MKNK1 was quantified employing the TR-FRET-based MKNK1 high ATP assay as described in the following paragraphs.
A recombinant fusion protein of Glutathione-S-Transferase (GST, N-terminally) and human full-length MKNK1 (amino acids 1-424 and T344D of accession number BAA 19885.1), expressed in insect cells using baculovirus expression system and purified via glutathione sepharose affinity chromatography, was purchased from Carna Biosciences (product no 02-145) and used as enzyme. As substrate for the kinase reaction the biotinylated peptide biotin-Ahx-IKKRKLTRRKSLKG (C-terminus in amide form) was used, which can be purchased e.g. from the company Biosyntan (Berlin-Buch, Germany).
For the assay 50 nL of a 100 fold concentrated solution of the test compound in DMSO was pipetted into a black low volume 384 well microtiter plate (Greiner Bio-One, Frickenhausen, Germany), 2 μL of a solution of MKNK1 in aqueous assay buffer [50 mM HEPES pH 7.5, 5 mM MgCl2, 1.0 mM dithiothreitol, 0.005% (v/v) Nonidet-P40 (Sigma)] was added and the mixture was incubated for 15 min at 22° C. to allow pre-binding of the test compounds to the enzyme before the start of the kinase reaction. Then the kinase reaction was started by the addition of 3 μL of a solution of adenosine-tri-phosphate (ATP, 3.3 mM=>final conc. in the 5 μL assay volume is 2 mM) and substrate (0.1 μM=>final conc. in the 5 μL assay volume is 0.06 μM) in assay buffer and the resulting mixture was incubated for a reaction time of 30 min at 22° C. The concentration of MKNK1 was adjusted depending of the activity of the enzyme lot and was chosen appropriate to have the assay in the linear range, typical concentrations were in the range of 0.003 μg/mL. The reaction was stopped by the addition of 5 μL of a solution of TR-FRET detection reagents (5 nM streptavidine-XL665 [Cisbio Bioassays, Codolet, France] and 1 nM anti-ribosomal protein S6 (pSer236)-antibody from Invitrogen [#44921G] and 1 nM LANCE EU-W1024 labeled ProteinG [Perkin-Elmer, product no. AD0071]) in an aqueous EDTA-solution (100 mM EDTA, 0.1% (w/v) bovine serum albumin in 50 mM HEPES pH 7.5).
The resulting mixture was incubated for 1 h at 22° C. to allow the formation of complex between the phosphorylated biotinylated peptide and the detection reagents. Subsequently the amount of phosphorylated substrate was evaluated by measurement of the resonance energy transfer from the Eu-chelate to the streptavidine-XL. Therefore, the fluorescence emissions at 620 nm and 665 nm after excitation at 350 nm were measured in a TR-FRET reader, e.g. a Rubystar (BMG Labtechnologies, Offenburg, Germany) or a Viewlux (Perkin-Elmer). The ratio of the emissions at 665 nm and at […] was taken as the measure for the amount of phosphorylated substrate. The data were normalised (enzyme reaction without inhibitor=0% inhibition, all other assay components but no enzyme=100% inhibition).

T1 sequence (Q9BUB5 1-424 isoform Q9BUB5-2 T344D): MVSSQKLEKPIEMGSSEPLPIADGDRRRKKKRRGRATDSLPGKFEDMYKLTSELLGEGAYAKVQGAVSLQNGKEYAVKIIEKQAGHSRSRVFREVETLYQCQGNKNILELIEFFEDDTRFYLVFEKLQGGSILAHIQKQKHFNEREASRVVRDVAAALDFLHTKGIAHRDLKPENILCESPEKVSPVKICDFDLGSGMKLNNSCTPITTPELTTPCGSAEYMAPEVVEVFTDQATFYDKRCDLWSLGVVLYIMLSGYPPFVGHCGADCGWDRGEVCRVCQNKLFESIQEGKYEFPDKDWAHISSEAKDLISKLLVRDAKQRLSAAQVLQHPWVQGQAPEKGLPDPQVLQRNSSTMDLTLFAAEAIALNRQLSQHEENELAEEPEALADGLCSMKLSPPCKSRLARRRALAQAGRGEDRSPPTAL

SMILES | IC50 [nM]
COc1cc2nnsc2cc1Nc1ncnc2sc3c(c12)CC[C@H](C(=O)N1CCC(N(C)CCN(C)C)CC1)C3 [Example 48, (4-{[2-(dimethylamino)ethyl](methyl)amino}piperidin-1-yl){(7S)-4-[(5-methoxy-1,2,3-benzothiadiazol-6-yl)amino]-5,6,7,8-tetrahydro[1]benzothieno[2,3-d]pyrimidin-7-yl}methanone] | 2
COc1cc2nnsc2cc1Nc1ncnc2sc3c(c12)CC[C@H](C(=O)N1CCN(CCN(C)C)CC1)C3 [Example 49, {4-[2-(Dimethylamino)ethyl]piperazin-1-yl}{(7S)-4-[(5-methoxy-1,2,3-benzothiadiazol-6-yl)amino]-5,6,7,8-tetrahydro[1]benzothieno[2,3-d]pyrimidin-7-yl}methanone] | 1.7
COc1cc2nnsc2cc1Nc1ncnc2sc3c(c12)CC[C@H](C(=O)N1C[C@@H]2C[C@H]1CN2C)C3 [Example 53, {(7S)-4-[(5-Methoxy-1,2,3-benzothiadiazol-6-yl)amino]-5,6,7,8-tetrahydro[1]benzothieno[2,3-d]pyrimidin-7-yl}[(1S,4S)-5-methyl-2,5-diazabicyclo[2.2.1]hept-2-yl]methanone] | 3.8
CCN(CCN(C)C)C(=O)[C@H]1CCc2c(sc3ncnc(Nc4cc5snnc5cc4OC)c23)C1 [Example 55, (7S)—N-[2-(Dimethylamino)ethyl]-N-ethyl-4-[(5-methoxy-1,2,3-benzothiadiazol-6-yl)amino]-5,6,7,8-tetrahydro[1]benzothieno[2,3-d]pyrimidine-7-carboxamide] | 8.9
COc1cc2nnsc2cc1Nc1ncnc2sc3c(c12)CC[C@H](C(=O)NCCC(F)(F)F)C3 [Example 56, (7S)-4-[(5-Methoxy-1,2,3-benzothiadiazol-6-yl)amino]-N-(3,3,3-trifluoropropyl)-5,6,7,8-tetrahydro[1]benzothieno[2,3-d]pyrimidine-7-carboxamide] | 7.3
COc1cc2nnsc2cc1Nc1ncnc2sc3c(c12)CC[C@H](C(=O)N1C[C@H]2C[C@@H]1CN2C)C3 [Example 58, {(7S)-4-[(5-Methoxy-1,2,3-benzothiadiazol-6-yl)amino]-5,6,7,8-tetrahydro[1]benzothieno[2,3-d]pyrimidin-7-yl}[(1R,4R)-5-methyl-2,5-diazabicyclo[2.2.1]hept-2-yl]methanone] | 1.9
CN1C[C@H]2C[C@@H]1CN2C(=O)[C@H]1CCc2c(sc3ncnc(Nc4ccc5nnsc5c4)c23)C1 [Example 59, [(7S)-4-(1,2,3-Benzothiadiazol-6-ylamino)-5,6,7,8-tetrahydro[1]benzothieno[2,3-d]pyrimidin-7-yl][(1R,4R)-5-methyl-2,5-diazabicyclo[2.2.1]hept-2-yl]methanone] | 3.2

The next lines start with the values.

IC50 [nM] | SMILES
182 | COc1cc2nnsc2cc1Nc1ncnc2sc3c(c12)CC[C@H](C(=O)N1CCC1)C3 [Example 46, Azetidin-1-yl{(7S)-4-[(5-methoxy-1,2,3-benzothiadiazol-6-yl)amino]-5,6,7,8-tetrahydro[1]benzothieno[2,3-d]pyrimidin-7-yl}methanone]
7.6 | COc1cc2nnsc2cc1Nc1ncnc2sc3c(c12)CC[C@H](C(=O)N1CCC(N(C)C)CC1)C3 [Example 47, [4-(Dimethylamino)piperidin-1-yl]{(7S)-4-[(5-methoxy-1,2,3-benzothiadiazol-6-yl)amino]-5,6,7,8-tetrahydro[1]benzothieno[2,3-d]pyrimidin-7-yl}methanone]
11 | COc1cc2nnsc2cc1Nc1ncnc2sc3c(c12)CC[C@H](C(=O)N1CCN(C)CC1)C3 [Example 50, {(7S)-4-[(5-Methoxy-1,2,3-benzothiadiazol-6-yl)amino]-5,6,7,8-tetrahydro[1]benzothieno[2,3-d]pyrimidin-7-yl}(4-methylpiperazin-1-yl)methanone]
3.3 | COc1cc2nnsc2cc1Nc1ncnc2sc3c(c12)CC[C@H](C(=O)N1CC[C@H](N(C)C)C1)C3 [Example 51, [(3S)-3-(Dimethylamino)pyrrolidin-1-yl]{(7S)-4-[(5-methoxy-1,2,3-benzothiadiazol-6-yl)amino]-5,6,7,8-tetrahydro[1]benzothieno[2,3-d]pyrimidin-7-yl}methanone]
2.1 | COc1cc2nnsc2cc1Nc1ncnc2sc3c(c12)CC[C@H](C(=O)N1CC[C@@H](N(C)C)C1)C3 [Example 52, [(3R)-3-(Dimethylamino)pyrrolidin-1-yl]{(7S)-4-[(5-methoxy-1,2,3-benzothiadiazol-6-yl)amino]-5,6,7,8-tetrahydro[1]benzothieno[2,3-d]pyrimidin-7-yl}methanone]
9.2 | COc1cc2nnsc2cc1Nc1ncnc2sc3c(c12)CC[C@H](C(=O)N1CC(N2CCCCC2)C1)C3 [Example 54, {(7S)-4-[(5-Methoxy-1,2,3-benzothiadiazol-6-yl)amino]-5,6,7,8-tetrahydro[1]benzothieno[2,3-d]pyrimidin-7-yl}[3-(piperidin-1-yl)azetidin-1-yl]methanone]
1.6 | COc1cc2nnsc2cc1Nc1ncnc2sc3c(c12)CC[C@H](C(=O)N1C[C@H](O)[C@@H](O)C1)C3 [Example 57, [(3S,4S)-3,4-Dihydroxypyrrolidin-1-yl]{(7S)-4-[(5-methoxy-1,2,3-benzothiadiazol-6-yl)amino]-5,6,7,8-tetrahydro[1]benzothieno[2,3-d]pyrimidin-7-yl}methanone]
